Results taken from patent US20220313769A1, “NEW ANTIOXIDANT COMPOSITION FOR WOUND HEALING” (HISTOCELL, S.L., priority 2019, published 2022).

Tested on: epithelial fibroblasts
Assay: In vitro wound healing assay or scratch assay
Format: cell-based
Settings: 0.001% lycopene compared to 5 mM NAC
Method: The in vitro wound healing assay or scratch assay measures the capacity of a product to stimulate cellular proliferation (epithelial fibroblasts or keratinocytes) and close a gash without cells in a cellular monolayer in the culture tissue. For the gash to be homogeneous in all the wells, the cells are seeded in wells containing silicone blocks of the same size, which prevent adhesion of the cells in the area occupied by the block. Thus, epithelial fibroblasts were seeded in 24-well plates with the silicone blocks or barriers. After incubating for 12 hours, the barriers were removed and the cells were incubated for 24-72 hours with medium that contained the components separately or combined [different concentrations of locust bean galactomannan (LBG, 0.2, 0.1 and 0.01%), lycopene (0.001%)] and acetylcysteine (NAC, 5 mM). The entire surface of the well covered by the cells or the number of cells was estimated based on the images obtained of the wells with different treatments.

CC(C)=CCC/C(C)=C/C=C/C(C)=C/C=C/C(C)=C/C=C/C=C(C)/C=C/C=C(C)/C=C/C=C(\C)CCC=C(C)C [lycopene]
Capacity of migration of the fibroblasts (FIG. 2B legend): higher capacity of migration | In vitro healing (FIG. 2B): induced in vitro healing better
